The values that follow come from patent publication US10953027B2, “Active agents and methods of their use for the treatment of metabolic disorders and nonalcoholic fatty liver disease” (Flagship Pioneering Innovations V, Inc., priority 2018, dated 2021).

The subject of one data set is Male FATZO mice. The data set can be described thus: In vivo FATZO DM2/obesity study (Example 5). Conditions: in HFD ad libitum, after 28 days; blood glucose 0-120 minutes. The procedure: Male FATZO mice (Crown Bio) of 11-12 weeks old were selected for Diabetes Mellitus Type 2 (DM2) and obesity study. Mice were randomized into 9 groups based on body weight and blood glucose level as shown below. Compounds were administered in high fat diet (HFD: D12492) and provided to mice ad libitum until study termination. Body weight was recorded at the baseline and then twice weekly thereafter. Blood glucose level was measured at 0, 15, 30, 60, 90, and 120 minutes at the end of the study.

A further data set has as its system HFD-fed C57BL/6 mice. In words: In vivo evaluation in HFD-fed C57BL/6 mice (Example 3). Conditions: 6% in HFD ad libitum, 8 week. The procedure:
Animals were allowed free access to food and drinking water for the entire 8 week study. Animals were weighed on a weekly basis, and food and drinking water consumption monitored. Plasma and stool samples were collected at the beginning of the study, mid-study, and day of termination. These samples were used for the measurement of the disease makers.
Disease markers were also assessed in liver tissues collected from mice as follows. Liver tissues from mice were collected, fixed by immersion in 10% neutral buffered formalin. Fixed tissue specimens were sent to a histological processing laboratory (Premier Laboratory, Longmont, Colo.), where they were paraffin embedded, sectioned (approximately 4 μm), mounted, and stained with hematoxylin and eosin (H&E) using standard methods.
Liver sections (2) for each animal were scored from a scan of the H&E-stained slide for inflammation, steatosis (macrovesicular vacuolation) and ballooning ([…] vacuolation) using a modified grading scale based on human biopsy scoring (Brunt et al., Am J Clin Pathol, 128:837-47, 2007). Inflammation was scored 0=no inflammation, 1=minimal (1-3 foci of scattered (lobar) inflammatory cells), 2=mild (3 to 10 scattered foci of inflammatory cells with or without portal/periportal inflammation), 3=moderate (>10 scattered (lobar) foci of inflammatory cells and/or marked portal/periportal inflammation. Steatosis was graded (as in Brunt et al., Am J Clin Pathol, 128:837-47, 2007) as follows: 0=no steatosis, grade 1: ≤33%; grade 2: >33%, <66%; 3: ≥66%. Ballooning was scored as follows: 0=no ballooning, 1=rare/few, and 2=many hepatocytes with microvesicular vacuolation.

Data set [1] can be described thus: Assay 1. Stability in Simulated Gastric Fluid (SGF). Type of data set: in vitro ADME. Conditions: 1 μM, 37° C., SGF pH 1.6 with pepsin. A digest of the protocol:
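Simulated gastric fluid, prepared fresh as NaCl buffer at pH 1.6 with 0.1 mg/mL pepsin and FaSSIF powder, received test compound to 1 μM final and was held at 37 °C. LC/MS of acetonitrile-quenched samples, taken immediately and then periodically, gave degradation rates.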

Data set [2] is described as follows: Assay 3. Fecal Incubation Stability. Type of data set: in vitro ADME. Conditions: 1 or 10 μM, human fecal slurry, anaerobic.
The nature of data set [3]: Assay 2. Stability in Simulated Intestinal Fluid (SIF). Type of data set: in vitro ADME. The following applies: 1 μM, 37° C., SIF pH 6.7 with pancreatin. A digest of the protocol: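 Degradation rate measured by LC/MS after acetonitrile quench of timed aliquots, starting at T0. Test compound 1 μM in simulated intestinal fluid (pH 6.7 phosphate buffer, FaSSIF powder, pancreatin), shaken at 37 °C.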

With `CC(=O)Oc1cc(OC(C)=O)c2c(c1)O[C@H](c1cc(OC(C)=O)c(OC(C)=O)c(OC(C)=O)c1)[C@H](OC(=O)c1cc(OC(C)=O)c(OC(C)=O)c(OC(C)=O)c1)C2` [Compound 4, [(2R,3R)-5,7-diacetoxy-2-(3,4,5-triacetoxyphenyl)chroman-3-yl] 3,4,5-triacetoxybenzoate], in the data set on Male FATZO mice, the “OGTT (AUC)” value is 59443. In addition, in the data set with HFD-fed C57BL/6 mice, the “ballooning score (FIG. 4)” value is “lower ballooning score than the animals fed a high fat diet only”, the “glucose tolerance (FIG. 2)” value is “exceeded that of animals in the HFD+rosiglitazone”, the “histological analysis of the livers: steatosis (FIGS. 5A-5G)” value was “significantly lower steatosis” and the “percentage change in weight (FIG. 1)” value was “underwent weight loss”. Further, the “steatosis score (FIG. 3)” value with HFD-fed C57BL/6 mice is listed as “lower steatosis score than the animals fed high fat diet only”. Moreover, in data set [1], the “Assay 1 (SGF) (% Remaining @ 1 hours)” value is “C (C: >75% of the tested compound remaining)”. Moreover, the “Assay 3 (% Remaining at 24 h)” value in data set [2] is reported as “A (A: <25% of the tested compound remaining)”. Also, the “Assay 2 (SIF) (% @ Remaining 4 hours)” value in data set [3] is reported as “A (A: <25% of the tested compound remaining)”.

`CC(=O)Oc1cc(OC(C)=O)c2c(=O)c(OC(C)=O)c(-c3ccc(OC(C)=O)c(OC(C)=O)c3)oc2c1` [Compound 14, [2-acetoxy-4-(3,5,7-triacetoxy-4-oxo-chromen-2-yl)phenyl] acetate]: in the data set on Male FATZO mice, the “OGTT (AUC)” value turned out to be 65323. The “Assay 1 (SGF) (% Remaining @ 1 hours)” value in data set [1] was “C (C: >75% of the tested compound remaining)”. Also, the “Assay 2 (SIF) (% @ Remaining 4 hours)” value in data set [3] is given as “A (A: <25% of the tested compound remaining)”.

Regarding `CC(=O)O[C@H]1OC[C@H](OC(C)=O)[C@H](OC(C)=O)[C@H]1OC(C)=O` [Compound 53, (2R,3R,4S,5S)-tetrahydro-2H-pyran-2,3,4,5-tetrayl Tetraacetate], the “Assay 1 (SGF) (% Remaining @ 1 hours)” value in data set [1] is “C (C: >75% of the tested compound remaining)”. For the same compound, in data set [2], the “Assay 3 (% Remaining at 24 h)” value is “A (A: <25% of the tested compound remaining)”. For the same compound, in data set [3], the “Assay 2 (SIF) (% @ Remaining 4 hours)” value is given as “A (A: <25% of the tested compound remaining)”.
